# Measured values reported in patent publication US20040265964A1, “Inducers of recombinant protein expression” (priority 2003, published 2004).
# Legend:
# Format in all cases: cell-based, Chinese hamster
# [1] = system: fluorescent reporter gene DsRed under the control of an EASE/CMV promoter in CHO cells; assay: DsRed fluorescent reporter induction in CHO cell pools, 96 well format; settings: for increase in DsRed expression per viable cell relative to control: 96 well, 6 days at 31° C.; for effectiveness as inducers of recombinant polypeptide production: compound screening, conditions not given
# Experimental: FIG. 1 is a graph of the Effect of Combinations of Compounds on Induction of Reporter Gene. Pools of cells that expressed a fluorescent marker protein, DsRed, under the control of an EASE/CMV promoter were cultured in 96 well plates at 35° C. for 6 days in the presence of the indicated amount of compound. The amount of fluorescence is plotted as a function of the concentration of compound. Compounds used for induction were hexanohydroxamic acid (HHA) (diamonds), Hexamethylenebisacetamide (HMBA) (squares) and both HHA+HMBA (triangles).
# Using a construct that expressed DsRed under the control of a EASE/CMV promoter, including an adenoviral tripartite leader, as an indicator for expression, various compounds were assayed.
# Pools of cells were selected in -GHT medium for presence of the expression vector, and then plated in a 96 well format in serum-free medium. Hydrocinnamic acid was added to test wells at 0.5 millimolar, the temperature decreased from 37° C. to 31° C., and culture continued for 6 days at the reduce temperature. DsRed fluorescence was assayed on a Wallac Victor2 multilabel microplate reader (PerkinElmer Life Sciences, Boston, Mass.).
# [2] = system: CHO cell line that expresses a soluble form of the IL1-receptor type II; assay: IL1RII expression by CHO cell line in shake flasks
# Experimental: The induction capacity of this compound was then tested in a different format on a different recombinant protein. […] Cells were grown in serum-free medium in shake flasks, hydrocinnamic acid was added to a concentration of 0.5 millimolar, and incubation continued at 31° C. for 9 to 10 days.
# [3] = system: CHO cell pools transfected with an expression vector encoding an antibody against the IL4 receptor; assay: Antibody expression by unamplified CHO cell pools, 96 well plates; settings: for increase in antibody expression relative to control, compound used individually: single compound (HHA 10 micromolar, 3-phenylpropionohydroxamic acid 10 micromolar, HMBA 1 millimolar as in the combinations); for increase in antibody expression relative to control, compound used individually / increase in antibody expression relative to control: 4 days at 37° C.; for increase in antibody expression relative to control: 0.5 mM inducer (per example heading), average over experiments
# Experimental: In addition, CHO cell pools transfected with an expression vector encoding an antibody against the IL4 receptor were tested (see U.S. Pat. No. 5,717,072, incorporated by reference herein). Unamplified pools were plated in serum-free medium in 96 well plates and incubated with inducer for 4 days at 37° C.
# [4] = system: CHO cell that expresses a soluble form of a TNF receptor, TNFR:Fc; assay: TNFR:Fc expression by CHO cells in shake flasks; settings: 7 days at a reduced temperature
# Text: Another cell line tested was a CHO cell that expresses a soluble form of a TNF receptor, TNFR:Fc (U.S. Pat. No. 5,605,690, incorporated by reference herein). […]
# [5] = system: fluorescent reporter gene DsRed under the control of an EASE/CMV promoter in CHO cells; assay: DsRed fluorescent reporter induction in CHO cell pools, 96 well format; settings: 6 days at 31° C.
# [6] = 0.5 mM compound, average over experiments
# [7] = 0.5 millimolar compound, serum-free medium, 31° C. for 9 to 10 days
# [8] = 0.5 mM compound, serum-free medium
smiles,measurement,setting,value
Cc1ccc(CCC(=O)O)cc1 [3-(4-methylphenyl)propionic acid],increase in DsRed expression per viable cell relative to control,[1]; [6],70%
same,increase in IL1RII expression relative to control,[2]; [7],15%
O=C(CCc1ccccc1)NO [3-phenylpropionohydroxamic acid],"increase in antibody expression relative to control, compound used individually",[3],not a significant increase
O=C(O)CCCc1ccccc1 [4-phenylbutyric acid],increase in DsRed expression per viable cell relative to control,[1]; [6],60%
same,increase in IL1RII expression relative to control,[2]; [7],21%
O=C(O)CCCCc1ccccc1 [5-phenylvaleric acid],increase in DsRed expression per viable cell relative to control,[1]; [6],40%
same,increase in IL1RII expression relative to control,[2]; [7],44%
same,increase in TNFR:Fc expression relative to control cells,[4]; [8],33%
same,increase in antibody expression on day 3,"[3]; 0.5 mM 5-phenylvaleric acid, 37° C., day 3",no increase
same,increase in antibody expression relative to control,[3],40%
"CCCCCC(=O)NO [HHA, hexanohydroxamic acid]",increase in IL1RII expression relative to control,"[2]; 10 micromolar HHA, 31° C. for 9 days",19%
same,increase in TNFR:Fc expression relative to control cells,[4]; 10 micromolar HHA,19%
same,increase in TNFR:Fc expression relative to control cells,[4]; 20 micromolar HHA,11%
same,increase in DsRed expression relative to the control,[5]; 10 micromolar HHA alone,48%
same,"increase in antibody expression relative to control, compound used individually",[3],did not have a significant increase
"CC(=O)NCCCCCCNC(C)=O [HMBA, hexamethylene bisacetamide, reference compound]",increase in TNFR:Fc expression relative to control cells,[4]; 1.0 millimolar HMBA alone,14%
same,increase in DsRed expression relative to the control,[5]; 1 millimolar HMBA alone,20%
same,"increase in antibody expression relative to control, compound used individually",[3],not a significant increase
CCCCNC(C)=O [N-butylacetamide],increase in DsRed expression per viable cell relative to control,"[1]; 1.0 millimolar compound, average of 2 experiments",77%
O=C(O)CCc1ccccc1 [hydrocinnamic acid],increase in DsRed expression per viable cell relative to control,[1]; [6],60%
same,increase in IL1RII expression relative to control,[2]; [7],22%
same,increase in TNFR:Fc expression relative to control cells,[4]; [8],20%
same,increase in antibody expression relative to control,[3],5%
"CC(CC(=O)O)C(=O)O (centres unmarked) [methylsuccinic acid, reference compound]",effectiveness as inducers of recombinant polypeptide production,[1],ineffective
"O=C(O)CCCCCC(=O)O [pimelic acid, reference compound]",effectiveness as inducers of recombinant polypeptide production,[1],ineffective
"O=C(O)CC(O)(CC(=O)O)C(=O)[O-].[Na+] [sodium dihydrogen citrate, reference compound]",effectiveness as inducers of recombinant polypeptide production,[1],ineffective
